# Measured values from Sander's compilation of Henry's law constants (doi:10.1016/j.watres.2017.04.074).
# Assay: Henry solubility constant Hcp at 298.15 K (mol/(m3 Pa))
# Conditions: reference: Chao et al. (2017)
row,Compound,Henry solubility constant Hcp
1,O=[N+]([O-])c1cccc(Cl)c1 [3-chloronitrobenzene],1.4
2,CCOC(=O)CC(SP(=S)(OC)OC)C(=O)OCC (stereo unspecified) [malathion],15
3,OCc1ccccc1 [(hydroxymethyl)-benzene],17
4,ClC1=C(Cl)[C@]2(Cl)[C@H]3[C@H]([C@@H]4C=C[C@H]3C4)[C@@]1(Cl)C2(Cl)Cl [aldrin],0.26
5,ClC1=C(Cl)C2(Cl)C3C4OC4C(Cl)C3C1(Cl)C2(Cl)Cl (stereo unspecified) [heptachlorepoxide],0.96
6,COP(=O)(OC)C(O)C(Cl)(Cl)Cl (stereo unspecified),55
7,CC(C)CO [2-methyl-1-propanol],1.2
8,"O=[N+]([O-])c1ccc(O)c([N+](=O)[O-])c1 [2,4-dinitrophenol]",970
9,ClC1=C(Cl)[C@]2(Cl)[C@@H]3[C@H]4C[C@H]([C@@H]5O[C@H]45)[C@@H]3[C@@]1(Cl)C2(Cl)Cl [endrin],1.5
10,O=[N+]([O-])c1ccc(O)cc1 [4-nitrophenol],14
11,CN(C)C(=O)Nc1ccc(Cl)c(Cl)c1 [diuron],35
12,Cc1ccccc1N [2-methylbenzenamine],3
13,ClC1=C(Cl)[C@]2(Cl)[C@@H]3[C@@H]4C[C@@H]([C@H]5O[C@@H]45)[C@@H]3[C@@]1(Cl)C2(Cl)Cl [dieldrin],0.65
14,O=[N+]([O-])c1ccccc1 [nitrobenzene],0.67
15,Nc1ccccc1Cl [1-amino-2-chlorobenzene],0.78
16,CNC(=O)Oc1cccc2c1OC(C)(C)C2 [carbofuran],24

row,Compound,Henry solubility constant Hcp
1,CCNc1nc(NC(C)C)nc(SC)n1 [ametryn],21
2,"Clc1ccc(C(c2ccc(Cl)cc2)C(Cl)Cl)cc1 [1,1-dichloro-2,2-bis-(4-chlorophenyl)-ethane]",0.76
3,Cc1cccc(N)c1 [3-methylbenzenamine],3.2
4,O=[N+]([O-])c1cccc2ccccc12 [1-nitronaphthalene],4.6
5,O=[N+]([O-])c1ccccc1O [2-nitrophenol],9.9
6,"ClC1C(Cl)C(Cl)C(Cl)C(Cl)C1Cl (stereo unspecified) [γ-1,2,3,4,5,6-hexachlorocyclohexane]",3.1
7,COP(=S)(OC)Oc1ccc([N+](=O)[O-])cc1 [methylparathion],17
8,Nc1ccccc1 [aminobenzene],4.4
9,Cc1cccc([N+](=O)[O-])c1 [3-nitrotoluene],1.3
10,Nc1cccc(Cl)c1 [1-amino-3-chlorobenzene],4.7
11,O=[N+]([O-])c1ccc(Cl)cc1 [4-chloronitrobenzene],1.4
12,COC(=O)c1ccccc1C(=O)OC [dimethyl phthalate],23
13,Cc1ccccc1O [1-hydroxy-2-methylbenzene],6.5
14,CC1CCCC(O)C1 (stereo unspecified) [3-methylcyclohexanol],2.9
15,CNC(=O)ON=C(C)SC [methomyl],200
